According to patent publication US20200069772A1, “METHODS OF TREATING EARLY RHEUMATOID ARTHRITIS” (BRISTOL-MYERS SQUIBB COMPANY, priority 2014, published 2020):
Where “and” joins values, the source holds several entries; their conditions need not be identical. Equal values may be shown once.

Legend:
patients with early RA [1] = assay: AVERT phase 3b randomized active-controlled trial: signs and symptoms (DAS-defined remission, other remission and ACR measures); format: in vivo, human
Description: Patients receiving oral corticosteroids were required to be on a stable dose (≤10 mg/day for ≥4 weeks) at initiation and to maintain that dose until Month 12.
All patients received concomitant folic acid therapy.
Patients with DAS28 (CRP)≥3.2 were discontinued.
For the purpose of this study, DAS-defined remission was DAS28 (CRP)<2.6.
Exploratory endpoints included: Other remission rates (Simplified Disease Activity Index [SDAI; ≤3.3], Clinical Disease Activity Index [CDAI; ≤2.8] and Boolean remission [28-joint tender joint count ≤1 and 28-joint swollen joint count ≤1 and patient global assessment of disease activity [0-10 cm]≤1 and high-sensitivity CRP≤1 mg/dL]), American College of Rheumatology (ACR) responses and Major Clinical Response (ACR 70 response for 6 months at any time period) in each arm.
Co-primary endpoints were tested in hierarchical fashion. […] All patients who discontinued prior to completing the treatment or withdrawal period were imputed as non-responders for the Month 12 or 18 analyses.
Endpoints of Disease Activity Score (DAS)-defined remission, SDAI remission, CDAI remission, Boolean remission, ACR 20/50/70 response and Major Clinical Response over time were summarized using descriptive statistics (with 95% confidence intervals at each time point).
For each treatment arm, a post hoc analysis was performed of mean baseline characteristics for patients who achieved DAS-defined remission at only Month 12 and at both Months 12 and 18, and of the proportions of patients who achieved DAS-defined remission based on these characteristics. An analysis of the overall treatment effect in mean change from baseline in DAS28 (CRP) (including data up to Month 12 of the treatment period) was performed for each treatment arm. Overall treatment effect and treatment differences between the three arms were obtained using a longitudinal repeated measures model including fixed categorical effects of treatment, months, and prior corticosteroid use as well as the continuous fixed covariate of baseline value. An unstructured covariance matrix was used to represent the correlation of the repeated measures within each subject.

patients with early RA [2] = assay: AVERT trial: HAQ-DI response (≥0.3 points reduction from baseline); format: in vivo, human; details: Month 12
[3] = treatment period, compared subgroups not stated

## CN(Cc1cnc2nc(N)nc(N)c2n1)c1ccc(C(=O)N[C@@H](CCC(=O)O)C(=O)O)cc1 [MTX, methotrexate]
Patients with early RA [1]; Month 12 of treatment period, patients with baseline DAS28 (CRP), discontinuations imputed as non-responders
  proportion of patients in DAS-defined remission (DAS28 [CRP]<2.6) at Month 12: 45.2%
Patients with early RA [1]; after withdrawal of all RA therapy at Month 12, only patients with DAS28 (CRP) available at baseline
  proportion of patients in DAS-defined remission (DAS28 [CRP]<2.6) at both Months 12 and 18: 7.8%
Patients with early RA [1]; of the patients who entered the withdrawal period in DAS-defined remission at Month 12
  patients remaining in DAS-defined remission at Month 18: 16.9%
Patients with early RA [1]; post hoc subgroup: baseline DAS28 (CRP) >Median (5.4)
  Proportion of Patients with DAS-defined Remission (DAS28 [CRP] < 2.6) at Both Months 12 and 18: 3/55 (5.5) %
Patients with early RA [1]; post hoc subgroup: baseline DAS28 (CRP) Missing
  Proportion of Patients with DAS-defined Remission (DAS28 [CRP] < 2.6) at Both Months 12 and 18: 0/1 (0) %
Patients with early RA [1]; post hoc subgroup: baseline DAS28 (CRP) ≤Median (5.4)
  Proportion of Patients with DAS-defined Remission (DAS28 [CRP] < 2.6) at Both Months 12 and 18: 6/60 (10.0) %
Patients with early RA [1]; post hoc subgroup: baseline Erosion >Median (4.5)
  Proportion of Patients with DAS-defined Remission (DAS28 [CRP] < 2.6) at Both Months 12 and 18: 3/50 (6.0) %
Patients with early RA [1]; post hoc subgroup: baseline Erosion >Q1 (1.5)-Q2 (4.5)
  Proportion of Patients with DAS-defined Remission (DAS28 [CRP] < 2.6) at Both Months 12 and 18: 2/23 (8.7) %
Patients with early RA [1]; post hoc subgroup: baseline Erosion >Q2 (4.5)-Q3 (8.5)
  Proportion of Patients with DAS-defined Remission (DAS28 [CRP] < 2.6) at Both Months 12 and 18: 2/23 (8.7) %
Patients with early RA [1]; post hoc subgroup: baseline Erosion >Q3 (8.5)
  Proportion of Patients with DAS-defined Remission (DAS28 [CRP] < 2.6) at Both Months 12 and 18: 1/27 (3.7) %
Patients with early RA [1]; post hoc subgroup: baseline Erosion Missing
  Proportion of Patients with DAS-defined Remission (DAS28 [CRP] < 2.6) at Both Months 12 and 18: 2/13 (15.4) %
Patients with early RA [1]; post hoc subgroup: baseline Erosion ≤Median (4.5)
  Proportion of Patients with DAS-defined Remission (DAS28 [CRP] < 2.6) at Both Months 12 and 18: 4/53 (7.5) %
Patients with early RA [1]; post hoc subgroup: baseline Erosion ≤Q1 (1.5)
  Proportion of Patients with DAS-defined Remission (DAS28 [CRP] < 2.6) at Both Months 12 and 18: 2/30 (6.7) %
Patients with early RA [1]; post hoc subgroup: baseline HAQ-DI >Median (1.375)
  Proportion of Patients with DAS-defined Remission (DAS28 [CRP] < 2.6) at Both Months 12 and 18: 5/49 (10.2) %
Patients with early RA [1]; post hoc subgroup: baseline HAQ-DI Missing
  Proportion of Patients with DAS-defined Remission (DAS28 [CRP] < 2.6) at Both Months 12 and 18: 0/11 (0) %
Patients with early RA [1]; post hoc subgroup: baseline HAQ-DI ≤Median (1.375)
  Proportion of Patients with DAS-defined Remission (DAS28 [CRP] < 2.6) at Both Months 12 and 18: 4/56 (7.1) %
Patients with early RA [1]; post hoc subgroup: baseline Osteitis >Median (0.5)
  Proportion of Patients with DAS-defined Remission (DAS28 [CRP] < 2.6) at Both Months 12 and 18: 3/49 (6.1) %
Patients with early RA [1]; post hoc subgroup: baseline Osteitis >Q1 (0)-Q2 (0.5)
  Proportion of Patients with DAS-defined Remission (DAS28 [CRP] < 2.6) at Both Months 12 and 18: 0/5 (0) %
Patients with early RA [1]; post hoc subgroup: baseline Osteitis >Q2 (0.5)-Q3 (5)
  Proportion of Patients with DAS-defined Remission (DAS28 [CRP] < 2.6) at Both Months 12 and 18: 2/26 (7.7) %
Patients with early RA [1]; post hoc subgroup: baseline Osteitis >Q3 (5)
  Proportion of Patients with DAS-defined Remission (DAS28 [CRP] < 2.6) at Both Months 12 and 18: 1/23 (4.3) %
Patients with early RA [1]; post hoc subgroup: baseline Osteitis Missing
  Proportion of Patients with DAS-defined Remission (DAS28 [CRP] < 2.6) at Both Months 12 and 18: 2/13 (15.4) %
Patients with early RA [1]; post hoc subgroup: baseline Osteitis ≤Median (0.5)
  Proportion of Patients with DAS-defined Remission (DAS28 [CRP] < 2.6) at Both Months 12 and 18: 4/54 (7.4) %
Patients with early RA [1]; post hoc subgroup: baseline Osteitis ≤Q1 (0)
  Proportion of Patients with DAS-defined Remission (DAS28 [CRP] < 2.6) at Both Months 12 and 18: 4/49 (8.2) %
Patients with early RA [1]; post hoc subgroup: baseline Pain (100 mm VAS) >Median (62)
  Proportion of Patients with DAS-defined Remission (DAS28 [CRP] < 2.6) at Both Months 12 and 18: 2/45 (4.4) %
Patients with early RA [1]; post hoc subgroup: baseline Pain (100 mm VAS) Missing
  Proportion of Patients with DAS-defined Remission (DAS28 [CRP] < 2.6) at Both Months 12 and 18: 0/11 (0.0) %
Patients with early RA [1]; post hoc subgroup: baseline Pain (100 mm VAS) ≤Median (62)
  Proportion of Patients with DAS-defined Remission (DAS28 [CRP] < 2.6) at Both Months 12 and 18: 7/60 (11.7) %
Patients with early RA [1]; post hoc subgroup: baseline Synovitis >Median (4.5)
  Proportion of Patients with DAS-defined Remission (DAS28 [CRP] < 2.6) at Both Months 12 and 18: 3/56 (5.4) %
Patients with early RA [1]; post hoc subgroup: baseline Synovitis >Q1 (2)-Q2 (4.5)
  Proportion of Patients with DAS-defined Remission (DAS28 [CRP] < 2.6) at Both Months 12 and 18: 1/23 (4.3) %
Patients with early RA [1]; post hoc subgroup: baseline Synovitis >Q2 (4.5)-Q3 (8.5)
  Proportion of Patients with DAS-defined Remission (DAS28 [CRP] < 2.6) at Both Months 12 and 18: 1/30 (3.3) %
Patients with early RA [1]; post hoc subgroup: baseline Synovitis >Q3 (8.5)
  Proportion of Patients with DAS-defined Remission (DAS28 [CRP] < 2.6) at Both Months 12 and 18: 2/26 (7.7) %
Patients with early RA [1]; post hoc subgroup: baseline Synovitis Missing
  Proportion of Patients with DAS-defined Remission (DAS28 [CRP] < 2.6) at Both Months 12 and 18: 2/13 (15.4) %
Patients with early RA [1]; post hoc subgroup: baseline Synovitis ≤Median (4.5)
  Proportion of Patients with DAS-defined Remission (DAS28 [CRP] < 2.6) at Both Months 12 and 18: 4/47 (8.5) %
Patients with early RA [1]; post hoc subgroup: baseline Synovitis ≤Q1 (2)
  Proportion of Patients with DAS-defined Remission (DAS28 [CRP] < 2.6) at Both Months 12 and 18: 3/24 (12.5) %
Patients with early RA [1]; post hoc subgroup: symptom duration >6 Months
  Proportion of Patients with DAS-defined Remission (DAS28 [CRP] < 2.6) at Both Months 12 and 18: 2/39 (5.1) %
Patients with early RA [1]; post hoc subgroup: symptom duration >Median (0.37 years)
  Proportion of Patients with DAS-defined Remission (DAS28 [CRP] < 2.6) at Both Months 12 and 18: 4/47 (8.5) %
Patients with early RA [1]; post hoc subgroup: symptom duration ≤6 Months
  Proportion of Patients with DAS-defined Remission (DAS28 [CRP] < 2.6) at Both Months 12 and 18: 7/77 (9.1) %
Patients with early RA [1]; post hoc subgroup: symptom duration ≤Median (0.37 years)
  Proportion of Patients with DAS-defined Remission (DAS28 [CRP] < 2.6) at Both Months 12 and 18: 5/69 (7.2) %
Patients with early RA [1]; [3]
  time with DAS28 (CRP) <2.6 during the treatment period (first value of 'x vs y'): 5.8 months
  time with DAS28 (CRP) <2.6 during the treatment period (second value of 'x vs y'): 5.7 months
Patients with early RA [2]
  HAQ-DI Response (≥0.3), proportion of patients: 44.0% and 51 (44.0) %
